The source made the active and inactive calls.

The target of assay [1] is Bcl-2-like protein 1 (Homo sapiens, UniProt Q07817). Kind of assay: Binding affinity to full length human Bcl-xl expressed in Escherichia coli BL21 (DE3) at up to 100 uM preincubated for 30 mins followed by 5-FAM-QEDIIIINIARHLAQVGDSMD-RSIPPG tracer addition and measured after 20 mins by fluorescence polarization assay. The note with it: dose microM <=100, time 50.0 min. (In general: Polarisation of emitted light reports the rotation of a fluorescent probe.)
Sequence of Bcl-2-like protein 1 (Q07817 whole entry): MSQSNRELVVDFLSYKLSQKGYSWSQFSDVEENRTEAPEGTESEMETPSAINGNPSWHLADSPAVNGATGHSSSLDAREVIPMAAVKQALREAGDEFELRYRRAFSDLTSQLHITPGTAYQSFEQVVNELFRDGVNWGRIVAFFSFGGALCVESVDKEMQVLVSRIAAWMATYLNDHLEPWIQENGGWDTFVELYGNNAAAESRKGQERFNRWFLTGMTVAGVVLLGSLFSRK

Assay [2] relates to HL-60. Put plainly: cells. The note with it: Homo sapiens, HL-60, 48 h.
Description: Cytotoxicity against human HL-60 cells assessed as inhibition of cell growth incubated for 48 hrs by CCK8 assay
The target in assay [3] is Apoptosis regulator Bcl-2 (Homo sapiens, UniProt P10415). Kind of assay: Binding affinity to full length human Bcl-2 expressed in Escherichia coli BL21 (DE3) at up to 100 uM preincubated for 30 mins followed by 5-FAM-QEDIIIINIARHLAQVGDSMD-RSIPPG tracer addition and measured after 20 mins by fluorescence polarization assay. The note with it: dose microM <=100, time 50.0 min.
Sequence of Apoptosis regulator Bcl-2 (P10415 whole entry): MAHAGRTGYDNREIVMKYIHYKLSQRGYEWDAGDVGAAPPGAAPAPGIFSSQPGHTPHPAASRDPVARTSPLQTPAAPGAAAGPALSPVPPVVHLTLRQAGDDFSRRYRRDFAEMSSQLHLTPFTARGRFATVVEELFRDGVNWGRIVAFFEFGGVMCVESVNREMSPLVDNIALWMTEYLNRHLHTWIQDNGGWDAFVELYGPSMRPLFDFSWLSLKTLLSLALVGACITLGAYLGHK

The target in assay [4] is Induced myeloid leukemia cell differentiation protein Mcl-1 (Homo sapiens, UniProt Q07820). Put plainly: Binding affinity to full length human MCL1 expressed in Escherichia coli BL21 (DE3) at up to 100 uM preincubated for 30 mins followed by 5-FAM-QEDIIIINIARHLAQVGDSMD-RSIPPG tracer addition and measured after 20 mins by fluorescence polarization assay. The note with it: dose microM <=100, time 50.0 min.
Sequence of Induced myeloid leukemia cell differentiation protein Mcl-1 (Q07820 whole entry): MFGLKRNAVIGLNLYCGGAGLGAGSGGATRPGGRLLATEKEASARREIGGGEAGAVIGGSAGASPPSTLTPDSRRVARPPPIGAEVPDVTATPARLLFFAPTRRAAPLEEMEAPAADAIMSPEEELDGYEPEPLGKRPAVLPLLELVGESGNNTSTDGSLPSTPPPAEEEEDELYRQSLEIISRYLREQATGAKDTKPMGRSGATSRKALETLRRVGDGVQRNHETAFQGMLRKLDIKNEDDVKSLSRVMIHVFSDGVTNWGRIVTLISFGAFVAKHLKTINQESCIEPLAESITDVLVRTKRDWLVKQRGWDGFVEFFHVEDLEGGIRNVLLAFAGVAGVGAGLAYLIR

Assay [5] deals with HEK-293T. Kind of assay: Cytotoxicity against HEK293T cells assessed as reduction in cell viability incubated for 48 hrs by CCK8 assay. The note with it: Homo sapiens.
The subject of assay [6] is RS4-11. Put plainly: cells. The note with it: Homo sapiens, RS4-11, 48 h.
Description: Cytotoxicity against human RS4-11 cells assessed as inhibition of cell growth incubated for 48 hrs by CCK8 assay
In assay [7] the test system is HeLa. Put plainly: cells. The note with it: Homo sapiens, 48 h.
Description: Cytotoxicity against human HeLa cells assessed as inhibition of cell growth incubated for 48 hrs by CCK8 assay

As for `COc1ccc(NC(=O)NCCNS(=O)(=O)c2ccc(-c3ccccc3OCc3cccc(O)c3)s2)cc1`, the result in assay [1], in assay [3] and in assay [4] was inactive. In addition, the IC50 in assay [2] was greater than 20 µM; in assay [5] it was greater than 20 µM; in assay [6], 9.4 µM; in assay [7], greater than 20 µM.
Turning to `O=S(=O)(NCCNC(=S)Nc1cc(C(F)(F)F)cc(C(F)(F)F)c1)c1ccc(-c2ccccc2OCc2cccc(O)c2)s1`, the outcome in assay [1], in assay [3] and in assay [4] was inactive. The IC50 in assay [2] is greater than 50 µM; in assay [5], greater than 20 µM; in assay [6], 12 µM; in assay [7], 14.9 µM.
For the compound `O=S(=O)(NCCNC(=S)Nc1cccc(Cl)c1)c1ccc(-c2ccccc2OCc2cccc(O)c2)s1`, the result in assay [1], in assay [3] and in assay [4] was inactive. The IC50 in assay [2] is 1.8 µM; in assay [5], 17.4 µM; in assay [6], 5.8 µM; in assay [7], 10.7 µM.
For `O=S(=O)(NCCNC(=S)Nc1cccc(Cl)c1)c1ccc(-c2ccccc2OCc2ccccc2)s1`, the result in assay [1], in assay [3] and in assay [4] was inactive. For the same compound, the IC50 in assay [2] was greater than 50 µM; in assay [5], 10.2 µM; in assay [6], greater than 50 µM; in assay [7], 8.4 µM.
Regarding `O=C(NCCNS(=O)(=O)c1ccc(-c2ccccc2O[C@H]2CC[C@@H](O)CC2)s1)Nc1cc(C(F)(F)F)cc(C(F)(F)F)c1`, the result in assay [1], in assay [3] and in assay [4] was inactive. For the same compound, the IC50 in assay [2] is 3.1 µM; in assay [5] it was 14.1 µM; in assay [6], 9.3 µM; in assay [7] it was 14.1 µM.
As to `O=C(NCCNS(=O)(=O)c1ccc(-c2ccccc2O[C@H]2CC[C@H](O)CC2)s1)Nc1ccc([N+](=O)[O-])cc1`, the outcome in assay [1], in assay [3] and in assay [4] was inactive. The IC50 in assay [2] is 8.9 µM; in assay [5], 9 µM; in assay [6], 4.1 µM; in assay [7], 10.5 µM.
`O=C(NCCNS(=O)(=O)c1ccc(-c2ccccc2OCc2cccc(O)c2)s1)Nc1cc(Cl)cc(Cl)c1`: the result in assay [1], in assay [3] and in assay [4] was inactive. Moreover, the IC50 in assay [2] is 2.8 µM; in assay [5], greater than 20 µM; in assay [6] it was greater than 50 µM; in assay [7], greater than 50 µM.
Take `O=C(NCCNS(=O)(=O)c1ccc(-c2ccccc2Oc2ccc([N+](=O)[O-])c([N+](=O)[O-])c2)s1)Nc1ccc([N+](=O)[O-])cc1`: the outcome in assay [1], in assay [3] and in assay [4] was inactive. Also, the IC50 was 0.34 µM in assay [2], 16.6 µM in assay [5], 3 µM in assay [6] and greater than 20 µM in assay [7].
On to `O=[N+]([O-])c1ccc(NC(=S)NCCNS(=O)(=O)c2ccc(-c3ccccc3O[C@H]3CC[C@@H](O)CC3)s2)cc1`, for which the result in assay [1], in assay [3] and in assay [4] was inactive. The IC50 in assay [2] is greater than 50 µM; in assay [5], 20 µM; in assay [6], 9.4 µM; in assay [7] it was greater than 20 µM.
Regarding `O=C(NCCNS(=O)(=O)c1ccc(-c2ccccc2Oc2ccc([N+](=O)[O-])c([N+](=O)[O-])c2)s1)Nc1cc(Cl)cc(Cl)c1`, the result in assay [1], in assay [3] and in assay [4] was inactive. Moreover, the IC50 in assay [2] was 2.3 µM; in assay [5], greater than 20 µM; in assay [6], 2.1 µM; in assay [7], greater than 20 µM.
Take `O=C(NCCNS(=O)(=O)c1ccc(-c2ccccc2Oc2ccc([N+](=O)[O-])c([N+](=O)[O-])c2)s1)Nc1cc(C(F)(F)F)cc(C(F)(F)F)c1`: the outcome in assay [1], in assay [3] and in assay [4] was inactive. Also, the IC50 in assay [2] was 1.9 µM; in assay [5] it was greater than 50 µM; in assay [6], 2.4 µM; in assay [7] it was greater than 50 µM.
As to `Cc1cc(C)cc(NC(=O)NCCNS(=O)(=O)c2ccc(-c3ccccc3Oc3ccc([N+](=O)[O-])c([N+](=O)[O-])c3)s2)c1`, the outcome in assay [1], in assay [3] and in assay [4] was inactive. The IC50 in assay [2] is 9.1 µM; in assay [5], greater than 50 µM; in assay [6] it was 3.6 µM; in assay [7], 12 µM.
Take `COc1cccc(NC(=O)NCCNS(=O)(=O)c2ccc(-c3ccccc3Oc3ccc([N+](=O)[O-])c([N+](=O)[O-])c3)s2)c1`: the result in assay [1], in assay [3] and in assay [4] was inactive. Besides, the IC50 was 6.7 µM in assay [2], 17.8 µM in assay [5], 1.3 µM in assay [6] and greater than 20 µM in assay [7].
As to `O=[N+]([O-])c1cccc(NC(=S)NCCNS(=O)(=O)c2ccc(-c3ccccc3OCc3cccc(O)c3)s2)c1`, the outcome in assay [1], in assay [3] and in assay [4] was inactive. Also, the IC50 turned out to be 11.4 µM in assay [2], 13.8 µM in assay [5], 9.8 µM in assay [6] and 11.1 µM in assay [7].
Turning to `Cc1cc(C)cc(NC(=O)NCCNS(=O)(=O)c2ccc(-c3ccccc3OCc3cccc(O)c3)s2)c1`, the result in assay [1], in assay [3] and in assay [4] was inactive. The IC50 in assay [2] is greater than 20 µM; in assay [5], greater than 20 µM; in assay [6] it was 5.8 µM; in assay [7], greater than 20 µM.
With `CC(C)c1ccc(Oc2ccc(O)c(O)c2)c(-c2ccsc2S(=O)(=O)NCCNC(=S)Nc2ccc([N+](=O)[O-])cc2)c1`, the outcome in assay [1], in assay [3] and in assay [4] was inactive. Moreover, the concentration for half-maximal inhibition (IC50) is 8.8 µM in assay [2], 16.3 µM in assay [5], 5.1 µM in assay [6] and greater than 20 µM in assay [7].
With `O=C(NCCNS(=O)(=O)c1ccc(-c2ccccc2O[C@H]2CC[C@H](O)CC2)s1)Nc1cc(Cl)cc(Cl)c1`, the outcome in assay [1], in assay [3] and in assay [4] was inactive. Further, the IC50 was greater than 20 µM in assay [2], greater than 50 µM in assay [5], 14.1 µM in assay [6] and greater than 20 µM in assay [7].
`O=S(=O)(NCCNC(=S)Nc1cc(C(F)(F)F)cc(C(F)(F)F)c1)c1ccc(-c2ccccc2O[C@H]2CC[C@@H](O)CC2)s1`: the outcome in assay [1], in assay [3] and in assay [4] was inactive. Moreover, the IC50 was 2.6 µM in assay [2], greater than 20 µM in assay [5], 6.3 µM in assay [6] and 10.9 µM in assay [7].
Turning to `COc1cccc(NC(=O)NCCNS(=O)(=O)c2sccc2-c2ccc(C)cc2Oc2ccc(O)c(O)c2)c1`, the result in assay [1], in assay [3] and in assay [4] was inactive. In addition, the IC50 in assay [2] is 3.6 µM; in assay [5], greater than 20 µM; in assay [6] it was 7.5 µM; in assay [7], greater than 20 µM.
As for `COc1ccc(NC(=S)NCCNS(=O)(=O)c2sccc2-c2ccc(C)cc2Oc2ccc(O)c(O)c2)cc1`, the result in assay [1], in assay [3] and in assay [4] was inactive. Moreover, the half-inhibitory concentration (IC50) in assay [2] is 4.1 µM; in assay [5], greater than 20 µM; in assay [6], 8.3 µM; in assay [7] it was greater than 20 µM.
On to `O=S(=O)(NCCNC(=S)Nc1cc(C(F)(F)F)cc(C(F)(F)F)c1)c1ccc(-c2ccccc2OCc2ccccc2)s1`, for which the result in assay [1], in assay [3] and in assay [4] was inactive. Besides, the IC50 in assay [2] is 2.1 µM; in assay [5], 8.5 µM; in assay [6] it was greater than 50 µM; in assay [7], 4.7 µM.
With `COc1ccc(Oc2ccc(C(C)C)cc2-c2ccsc2S(=O)(=O)NCCNC(=S)Nc2ccc([N+](=O)[O-])cc2)cc1OC`, the outcome in assay [1], in assay [3] and in assay [4] was inactive. The IC50 in assay [2] was 11.2 µM; in assay [5], 11.4 µM; in assay [6] it was 5.8 µM; in assay [7] it was 11.9 µM.
Take `COc1ccc(NC(=O)NCCNS(=O)(=O)c2ccc(-c3ccccc3Oc3ccc([N+](=O)[O-])c([N+](=O)[O-])c3)s2)cc1`: the outcome in assay [1], in assay [3] and in assay [4] was inactive. For the same compound, the IC50 in assay [2] is 5.4 µM; in assay [5], 18.5 µM; in assay [6] it was 1.4 µM; in assay [7] it was greater than 20 µM.

What is called IC50 is the concentration that gives 50% inhibition.

These data come from ChEMBL document CHEMBL5034015, “Structure-Based Optimization of 3-Phenyl-N-(2-(3-phenylureido)ethyl)thiophene-2-sulfonamide Derivatives as Selective Mcl-1 Inhibitors” (J Med Chem, 2021).
